Data published in patent US12421242B2, “Substituted tetrahydropyrrolo-pyridinone compounds and their use in treating medical conditions” (Karuna Therapeutics, Inc., priority 2022, dated 2025).

Assays:
hM4 receptors = target: T1, hM4 receptors (Homo sapiens, UniProt P08173); assay: Human M4 PAM pERK assay; type: cell-based; settings: PAM mode
T1 construct: expressed in transfected cells; host or cells: CHO cells
T1 sequence (P08173 1-479): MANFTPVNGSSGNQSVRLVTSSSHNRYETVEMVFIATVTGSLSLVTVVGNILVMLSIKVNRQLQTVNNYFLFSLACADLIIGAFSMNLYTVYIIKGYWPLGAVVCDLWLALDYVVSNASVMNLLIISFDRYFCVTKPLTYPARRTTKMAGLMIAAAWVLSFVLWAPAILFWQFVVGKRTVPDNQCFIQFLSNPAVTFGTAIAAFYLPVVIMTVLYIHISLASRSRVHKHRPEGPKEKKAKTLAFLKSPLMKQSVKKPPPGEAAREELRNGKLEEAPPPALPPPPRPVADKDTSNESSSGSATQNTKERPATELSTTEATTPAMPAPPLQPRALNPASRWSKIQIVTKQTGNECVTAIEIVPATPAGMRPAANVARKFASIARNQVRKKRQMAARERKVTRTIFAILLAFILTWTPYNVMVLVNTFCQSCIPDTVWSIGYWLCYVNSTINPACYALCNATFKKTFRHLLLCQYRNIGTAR
Summary of the method: (§1)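 CHO cells expressing hM4 or rM4 were serum-starved 4 h, then given compound (ten-point curve, 10 μM top, duplicate) with an EC20 of acetylcholine (10 nM final) for 5 min at 37° C. Phospho-ERK in lysates was detected by TR-FRET.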

rM4 receptors = target: T2, rM4 receptors (Rattus norvegicus, UniProt P08485); assay: Rat M4 PAM pERK assay; type: cell-based; settings: PAM mode
T2 construct: expressed in transfected cells; host or cells: CHO cells
T2 sequence (P08485 1-478): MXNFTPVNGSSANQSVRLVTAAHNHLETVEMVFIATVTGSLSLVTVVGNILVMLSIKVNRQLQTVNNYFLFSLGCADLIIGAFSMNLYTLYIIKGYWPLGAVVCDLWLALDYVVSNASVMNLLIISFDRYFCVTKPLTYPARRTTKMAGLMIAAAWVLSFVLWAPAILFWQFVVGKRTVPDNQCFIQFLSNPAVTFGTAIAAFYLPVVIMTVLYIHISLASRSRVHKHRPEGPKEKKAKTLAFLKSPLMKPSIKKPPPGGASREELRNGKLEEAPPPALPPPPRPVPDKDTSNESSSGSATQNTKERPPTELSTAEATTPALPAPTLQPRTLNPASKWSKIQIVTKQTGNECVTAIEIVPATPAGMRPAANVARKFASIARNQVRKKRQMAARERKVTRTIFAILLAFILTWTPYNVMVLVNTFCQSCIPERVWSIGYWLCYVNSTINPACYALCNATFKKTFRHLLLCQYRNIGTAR
Summary of the method: as §1

human M4 receptor = target: T3, human M4 receptor (Homo sapiens, UniProt P08173); assay: M4 GTPγS PAM assay; type: biochemical; settings: CHO-K1 membranes expressing human M4, with EC20 acetylcholine (40 nM)
T3 construct: expressed in transfected cells
T3 sequence (P08173 1-479): T1 sequence (P08173 1-479)
Method: The M4 GTPγS PAM method was used. Membranes were prepared for GTPgS binding assays from CHO-K1 cells stably expressing human M4 receptor. Briefly, cells were grown in 5-layer cell culture flasks. Cells were washed with 50 mL of PBS and then dissociated with 0.05% trypsin. Dissociated cells were then collected by centrifugation at 650×g for 8 minutes at 4° C. Pellets were washed again in PBS by centrifugation and resuspended in 30 mL of 20 mM HEPES, 10 mM EDTA, pH 7.4. After sitting on ice for 30 min, membranes were collected by centrifugation at 50000×g for 15′ at 4° C., resuspended in 30 mL of 20 mM HEPES, 0.1 mM EDTA, pH 7.4 and collected again by centrifugation. Pellets were then washed twice by centrifugation in 30 mL of 20 mM HEPES, pH 7.4, and stored at −80° C. until the day of the assay. On the day of the assay, pellets were thawed on ice and resuspended in 1 mL of 20 mM HEPES, pH 7.4, 10 mM MgCl2, 100 mM NaCl using dounce homogenization. Membrane protein concentration is determined by BCA protein assay (Promega, Madison, WI) according to Promega guidelines.
On the day of the assay, serial dilutions of test PAM compounds were brought up in assay buffer (20 mM HEPES, 10 mM MgCl2, 100 mM NaCl) at 4× final assay concentration. […] of membrane homogenates (containing […] of membrane protein) were prepared in assay buffer supplemented with GDP at 4× final assay concentration (final assay concentration of GDP is 5 uM for M2 and 0.1 uM for M4) and dispensed into 96 well polypropylene, U-bottom Greiner plates. […] of vehicle or test PAM compound at 4× of final assay concentration diluted in the assay buffer were added to membrane and plates are incubated for 10-15 minutes at room temperature with gentle shaking. Then, […] of EC20 acetylcholine in assay buffer at 4× final assay concentration was added to assay plates (EC20 final assay concentrations was 40 nM for human M4).
Plates were then incubated, with shaking, for an additional 10-15 minutes. 25 mL of 0.4 nM ^35S-GTP (Perkin Elmer, Waltham, MA) in assay buffer was added to assay mixtures. The binding reaction is left on the shaker for 1 hour at room temperature. Membranes in assay reactions were then transferred to GF/C filter plates (Unifilter, Perkin Elmer) and washed three times using a FilterMate Harvester (Perkin Elmer) with cold assay buffer containing no GDP. Filter plates were then dried at 40° C. overnight followed by the addition of […] of Beta Plate Scintillation liquid. Plates are top and bottom sealed before being read on TopCount scintillation counter (Perkin Elmer, Waltham, MA).

Row | Compound | EC50 (hM4 receptors) [nM] | EC50 (rM4 receptors) [nM] | EC50 (human M4 receptor) [nM]
1 | COC(C)(C)Cn1cc(C(=O)N2Cc3c(C)c(Cl)c(=O)n(C)c3C2)cn1 [Compound I-62] | > 2000 | > 2000 | 500 to 2000
2 | COCCn1cc(C(=O)N2Cc3c(C)c(Cl)c(=O)n(C)c3C2)cn1 [Compound I-63] | > 2000 | > 2000 | > 2000
3 | Cc1c2c(n(C)c(=O)c1Cl)CN(C(=O)c1cnc(CC3CC3(F)F)s1)C2 (stereo not drawn) [Compound I-66] | < 100 | > 2000 | 500 to 2000
4 | Cc1c2c(n(C)c(=O)c1Cl)CN(C(=O)c1cnc(C(F)(F)C3CC3)s1)C2 [Compound I-67, 3-Chloro-6-(2-(cyclopropyldifluoromethyl)thiazole-5-carbonyl)-1,4-dimethyl-1,5,6,7-tetrahydro-2H-pyrrolo[3,4-b]pyridin-2-one] | < 100 | 500 to 2000 | 100 to 500
5 | Cc1c2c(n(CC(F)(F)F)c(=O)c1Cl)CN(C(=O)c1cnc(CC3CC3)s1)C2 [Compound I-71] | 500 to 2000 | > 2000 | > 2000
6 | Cc1c2c(n(CC(F)(F)F)c(=O)c1Cl)CN(C(=O)c1ccc3nc(C4CC4)sc3c1)C2 [Compound I-72] | 100 to 500 | 100 to 500 | 100 to 500
7 | COc1c2c(n(C)c(=O)c1Cl)CN(C(=O)c1cnn(C(F)(F)F)c1)C2C (stereo not drawn) [Compound I-73, 3-Chloro-4-methoxy-1,5-dimethyl-6-(1-(trifluoromethyl)-1H-pyrazole-4-carbonyl)-1,5,6,7-tetrahydro-2H-pyrrolo[3,4-b]pyridin-2-one] | 100 to 500 | 500 to 2000 | 100 to 500

Further lines, results first:

Row | EC50 (hM4 receptors) [nM] | EC50 (rM4 receptors) [nM] | EC50 (human M4 receptor) [nM] | Compound
8 | 500 to 2000 | > 2000 | 500 to 2000 | COc1cc(=O)n(C)c2c1C(C)N(C(=O)c1cnn(C(F)(F)F)c1)C2 (stereo not drawn) [Compound I-79, 4-Methoxy-1,5-dimethyl-6-(1-(trifluoromethyl)-1H-pyrazole-4-carbonyl)-1,5,6,7-tetrahydro-2H-pyrrolo[3,4-b]pyridin-2-one]
9 | 100 to 500 | > 2000 | 500 to 2000 | Cc1c(OC(F)F)c2c(n(C)c1=O)CN(C(=O)c1cnn(C(F)(F)F)c1)C2 [Compound I-89, 4-(Difluoromethoxy)-1,3-dimethyl-6-(1-(trifluoromethyl)-1H-pyrazole-4-carbonyl)-1,5,6,7-tetrahydro-2H-pyrrolo[3,4-b]pyridin-2-one]
10 | 100 to 500 | > 2000 | 500 to 2000 | CSc1c2c(n(C)c(=O)c1C)CN(C(=O)c1cnn(C(F)(F)F)c1)C2 [Compound I-90, 1,3-Dimethyl-4-(methylthio)-6-(1-(trifluoromethyl)-1H-pyrazole-4-carbonyl)-1,5,6,7-tetrahydro-2H-pyrrolo[3,4-b]pyridin-2-one]
11 | > 2000 | > 2000 | > 2000 | Cc1cc(=O)n(C)c2c1[C@H](C)N(C(=O)c1ccc3nc(C4CC4)sc3c1)C2 [Compound I-102]
12 | 100 to 500 | 500 to 2000 | > 2000 | Cc1cc(=O)n(C)c2c1[C@@H](C)N(C(=O)c1ccc3nc(C4CC4)sc3c1)C2 [Compound I-103]
13 | 500 to 2000 | > 2000 | > 2000 | Cc1c2c(n(C)c(=O)c1Cl)C(C)N(C(=O)c1cnn(C(F)(F)F)c1)C2 (stereo not drawn) [Compound I-109]
14 | < 100 | > 2000 | 100 to 500 | Cc1c2c(n(C)c(=O)c1C)CN(C(=O)c1cnn(C(F)(F)F)c1)C2 [Compound I-112]
15 | < 100 | > 2000 | 500 to 2000 | Cc1c2c(n(C)c(=O)c1F)CN(C(=O)c1cnn(C(F)(F)F)c1)C2 [Compound I-113, 3-Fluoro-1,4-dimethyl-6-(1-(trifluoromethyl)-1H-pyrazole-4-carbonyl)-1,5,6,7-tetrahydro-2H-pyrrolo[3,4-b]pyridin-2-one]
